Test results: PMC7180984, “A Hydrophilic Interaction Liquid Chromatography–Tandem Mass Spectrometry Quantitative Method for Determination of Baricitinib in Plasma, and Its Application in a Pharmacokinetic Study in Rats” (Molecules, 2020)
Read-outs that look alike come from different tables or passages of the source.

How the values were obtained:
[1] = Stability of working solutions; type: physicochemical
Procedure: Stability of the analyte was assessed using five measurements of QC samples at low and high concentrations after exposure to different conditions of storage and processing temperature. Baracitinib stability was evaluated after three freeze-thaw cycles, storage at room temperature (23–25 °C) for 6 h (short term stability), and subsequent storage for eight weeks at −80 °C (long term stability). […]

[2] = Pharmacokinetic study in rats after oral administration of baricitinib suspension; type: in vivo, Sprague Dawely rats
Procedure: Sample analysis was performed on an Acquity TQD UPLC-MS/MS system (Waters Co., Milford, MA, USA). The triple quadrupole mass spectrometer was operated in the MRM mode, and detection was carried out using electrospray ionization (ESI) in the positive ion mode. In addition, the mass spectrometry parameters including parent to daughter ion transition, collision energy, cone voltage, and dwell time were optimized to determine the analyte and IS (Table 5). The collision gas (argon) flow rate was kept at 0.1 mL/min and the desolvation gas (nitrogen) flow rate was optimized to 600 L/h. […] The flow rate was 0.2 mL/min.
Baricitinib and IS were extracted from rat plasma using liquid–liquid extraction. 20 µL of irbesartan working solution (20 µg/mL) was added to 100 µL plasma samples. After vortex-mixing for 20 s, 1 mL of n-hexane:dichlromethane mixture (1:1) was added. Samples were then mixed for 1 min and centrifuged for 5 min at 5600× g. The supernatant (0.8 mL) was transferred to a 5-mL tube and evaporated to dryness at 40 °C. Residues were reconstituted in 100 µL of the mobile phase and 5 µL was injected into the LC-MS/MS system.
Sprague Dawely rats weighing 200–230 g were obtained from the animal house at the National Organization for Drug Control and Research, Giza, Egypt. Rats were fed standard sufficient food and water and experiments were performed under the Guide for Care and Use of laboratory animals. experimental protocols were approved by the ethics committee of the Faculty of Pharmacy at Al-Azhar University, Cairo, Egypt (no. 206).
Baricitinib was used to create a suspension using 1% carboxymethyl cellulose. Following overnight fasting, the drug was administered in a dose of 2 mg/10 mL/kg. Blood samples (approximately 0.25 mL) were then collected from the retro-orbital plexus into heparinized tubes at 0.0, 0.25, 0.5, 0.75, 1.0, 1.25, 2.0, 3.0, 5.0, 7.0, 9.0, and 11.0 h post-dosing. Plasma samples were obtained by centrifuging the blood at 4250× g for 5 min and stored frozen at −80 °C until analysis. The pharmacokinetic parameters Cmax, tmax, AUC, t½, and Kel were calculated using WinNonlin software.

[3] = tested on: organic anionic transporter (OAT) 3; design: method as in PMID 30907116; conditions: cited from earlier work
[4] = tested on: P-glycoprotein (Pgp); design: method as in PMID 30907116; conditions: cited from earlier work
[5] = cited from earlier work
[6] = design: method as in PMID 24965573; conditions: cited from earlier work
[7] = cited from earlier work; remark: listed apart in the source
[8] = design: method as in earlier work; conditions: pre-clinical animal studies, at higher dosages; cited from earlier work
[9] = Stability of quality control samples in rat plasma; type: in vitro ADME; conditions: n = 6
Procedure: […] Baracitinib stability was evaluated after three freeze-thaw cycles, storage at room temperature (23–25 °C) for 6 h (short term stability), and subsequent storage for eight weeks at −80 °C (long term stability). Moreover, the stability of stock and working solutions of baricitinib and the IS at room temperature for 6 h (23–25 °C) and at refrigerator (2–8 °C) for 12 days was tested.

[10] = tested on: breast cancer resistance protein (BCRP); design: method as in PMID 30907116; conditions: cited from earlier work
[11] = tested on: multidrug and toxic extrusion protein (MATE) 2-K; design: method as in PMID 30907116; conditions: cited from earlier work
[12] = tested on: CYP3A4 enzyme; design: method as in PMID 30907116; conditions: cited from earlier work
[13] = refrigerated temperature (2–8 °C) for 10 days
[14] = room temperature (23–25 °C) for 6 h
[15] = Sprague-Dawley, rat, plasma, male rats, oral 2 mg/kg suspension, fasted, mean ± SD
[16] = rats, literature value higher than present work
[17] = co-administration of high-fat meal
[18] = with rifampicin (potent CYP3A inducer)
[19] = Auto-sampler, nominal 40.0 ng/mL
[20] = Auto-sampler, nominal 400.0 ng/mL
[21] = Bench top (6 h), nominal 400.0 ng/mL
[22] = Long term (at −80 °C for 8 weeks), nominal 40.0 ng/mL
[23] = Long term (at −80 °C for 8 weeks), nominal 400.0 ng/mL
[24] = Thaw/freeze (3 cycles), nominal 40.0 ng/mL
[25] = Thaw/freeze (3 cycles), nominal 400.0 ng/mL

In the case of `CCCCC1=NC2(CCCC2)C(=O)N1Cc1ccc(-c2ccccc2-c2nnn[nH]2)cc1` [IS, irbesartan], the “Stability of working solution” value [1, 13] is reported as “stable” and the “Stability of working solution” value [1, 14] is reported as “stable”.
With `CCS(=O)(=O)N1CC(CC#N)(n2cc(-c3ncnc4[nH]ccc34)cn2)C1` [baricitinib, Baricitinib] the AUC(0-inf) [2, 15] was 223 ± 107 ng·h/mL, the Cmax [2, 15] was 129 ± 91.4 ng/mL and the MRT [2, 15] was 3.3 ± 0.78 h. The half-life [2, 15] was 2.24 ± 0.43 h, the AUC(0-t) ([2]; Sprague-Dawley, rat, plasma, male rats, oral 2 mg/kg suspension, fasted, mean ± SD, read-out: AUC0-11) was 205 ± 101 ng·h/mL and the Tmax ([2]; Sprague-Dawley, rat, plasma, male rats, oral 2 mg/kg suspension, fasted, median) was 0.5 h. The “Difference in AUC, value reported by Veeraraghavan et al. versus present work” value [2, 16] was 4.3 fold, the “Difference in Cmax, value reported by Veeraraghavan et al. versus present work” value [2, 16] was 5 fold and the “Substrate of OAT3” value [3] was “substrate”. The “Substrate of P-glycoprotein (Pgp)” value [4] was “substrate”, the “LDL-C and HDL-C levels” value [5] was “stable dose-response increase” and the Infection risk ([5]; particularly for herpes zoster) was “elevates infection risk”. For the same compound, the Safety and tolerability ([5]; patients with moderate to severe RA treated for 24 weeks) was “safe and well tolerated”, the “Time to peak plasma concentrations” value ([6]; after oral administration) was “approximately 1 h” and the Oral bioavailability [6] was 79%. The “Bound to plasma proteins” value ([6]; mainly albumin) was “about 50%”, the “Stability of working solution” value [1, 13] was “stable” and the “Stability of working solution” value [1, 14] was “stable”. The Delay in tmax [7, 17] was 3 h, the “Effect on AUC” value [7, 17] was “no effect” and the “Reduction of Cmax” value [7, 17] was “about 29%”. For the same compound, the Change of clearance ([7]; with an inhibitor of the transporter OAT3) was “reduced”, the “Effect on baricitinib pharmacokinetics” value ([7]; with fluconazole (CYP2C19/CYP2C9/CYP3A inhibitor)) was “did not significantly affect” and the “Effect on baricitinib pharmacokinetics” value ([7]; with ketoconazole (CYP3A inhibitor)) was “did not significantly affect”. For the same compound, the “Change of Cmax (rate of absorption)” value ([7]; with probenecid) was “not significantly increased”, the “Potentiation of AUC0-inf” value ([7]; with probenecid) was “twofold” and the “Renal clearance decreased to” value ([7]; with probenecid) was 69%. The “Change of AUC” value [7, 18] was “decreased”, the “Change of Cmax” value [7, 18] was “without affecting” and the Embryotoxicity and teratogenicity [8] was “embryotoxicity, teratogenicity, and adverse effect on bone development in utero”. The “Stability, Accuracy (%)” value [9, 19] was 89.0%, the “Stability, measured conc. Mean ± SD” value [9, 19] was 35.6 ± 2.69 ng/mL and the “Stability, Accuracy (%)” value [9, 20] was 90.1%. The “Stability, measured conc. Mean ± SD” value [9, 20] was 360.36 ± 11.52 ng/mL, the “Stability, measured conc. Mean ± SD” value ([9]; Bench top (6 h), nominal 40.0 ng/mL) was 34.61 ± 3.03 ng/mL and the “Stability, Accuracy (%)” value [9, 21] was 85.8%. The “Stability, measured conc. Mean ± SD” value [9, 21] was 343.27 ± 44.76 ng/mL, the “Stability, Accuracy (%)” value [9, 22] was 86.6% and the “Stability, measured conc. Mean ± SD” value [9, 22] was 34.63 ± 4.63 ng/mL. The “Stability, Accuracy (%)” value [9, 23] was 87.64%, the “Stability, measured conc. Mean ± SD” value [9, 23] was 350.56 ± 28.53 ng/mL and the “Stability, Accuracy (%)” value [9, 24] was 85.1%. For the same compound, the “Stability, measured conc. Mean ± SD” value [9, 24] was 34.09 ± 3.99 ng/mL, the “Stability, Accuracy (%)” value [9, 25] was 86.4% and the “Stability, measured conc. Mean ± SD” value [9, 25] was 345.73 ± 39.84 ng/mL. The “Substrate of BCRP” value [10] was “substrate”, the “Substrate of MATE2-K” value [11] was “substrate” and the “Metabolism by CYP3A4” value [12] was “primarily metabolized”.
